Experimental data as given in patent publication US9926340B2, “NAD analogs and methods of using said NAD analogs in determining ribosylation of proteins with PARP mutants” (The Board of Regents of the University of Texas System, priority 2015, dated 2018).

Test system: HeLa cell nuclear extract proteins
Test: ADP-ribosylation of HeLa cell nuclear extract proteins by asPARPs 1, 2 or 3
Format: biochemical, human
Settings: purified recombinant asPARPs 1, 2, or 3; 250 μM analog, 15 min
Description: HeLa cell nuclear extract preparation. HeLa Nuclear Extract was prepared essentially as described in Dignam et al., 1983. 5 L of HeLa S3 cells were grown in Spinner flasks to a density of 0.5×10^6 cells per milliliter and harvested by centrifugation at 4° C. for 10 minutes at 2000 RPM. Cell pellets were washed in 5 pelleted cell volumes of ice cold PBS and centrifuged 10 minutes at 2000 RPM. Cells were resuspended in 5 pelleted cell volumes of Buffer A (10 mM HEPES, pH 7.9, 1.5 mM MgCl2, 10 mM KCl, 0.5 mM DTT, 1 mM PMSF, 4 mM Benzamidine, 1 μM Aprotinin, 100 μM Leupeptin, 1 μM Pepstatin A) and incubated 10 minutes on ice to facilitate cell swelling and centrifuged at 4° C. for 10 minutes at 2000 RPM. Cells were resuspended in 2 pelleted cell volumes of Buffer A and dounced with a light pestle dounce homogenizer (Wheaton) to release nuclei. The nuclei were then pelleted by centrifugation at 4° C. for 10 minutes at 2000 RPM and the supernatant decanted. The nuclei were subsequently centrifuged at 4° C. for 20 minutes at 25,000 RCF to obtain a crude nuclear fraction. […]

C#CCCSc1nc2c(N)ncnc2n1[C@@H]1O[C@H](COP(=O)(O)OP(=O)(O)OC[C@H]2O[C@@H]([n+]3cccc(C(N)=O)c3)C(O)C2O)[C@H](O)C1O (stereo partly shown) [8-Bu(3-yne)T-NAD^+]
labeling of HeLa cell nuclear extract proteins: PARP-specific labeling of extract proteins
